According to US20060257543A1, “Molecules comprising linked organic moieties as flavor modifiers for comestible compositions” (priority 2005, published 2006):
Where two headings read alike, the source gives them in different places.

How the values were obtained:
[1] = target: T1, hT1R1/hT1R3 umami receptor expressed in an HEK293 cell line (Homo sapiens, UniProt Q7RTX0+Q7RTX1); test: In vitro hT1R1/hT1R3 umami taste receptor activation assay (FLIPR, dose response); format: cell-based
T1 construct: expressed in transfected cells; host or cells: HEK293 derivative, clone I-17, expression induced with mifepristone
T1 sequence (Q7RTX1 21-841): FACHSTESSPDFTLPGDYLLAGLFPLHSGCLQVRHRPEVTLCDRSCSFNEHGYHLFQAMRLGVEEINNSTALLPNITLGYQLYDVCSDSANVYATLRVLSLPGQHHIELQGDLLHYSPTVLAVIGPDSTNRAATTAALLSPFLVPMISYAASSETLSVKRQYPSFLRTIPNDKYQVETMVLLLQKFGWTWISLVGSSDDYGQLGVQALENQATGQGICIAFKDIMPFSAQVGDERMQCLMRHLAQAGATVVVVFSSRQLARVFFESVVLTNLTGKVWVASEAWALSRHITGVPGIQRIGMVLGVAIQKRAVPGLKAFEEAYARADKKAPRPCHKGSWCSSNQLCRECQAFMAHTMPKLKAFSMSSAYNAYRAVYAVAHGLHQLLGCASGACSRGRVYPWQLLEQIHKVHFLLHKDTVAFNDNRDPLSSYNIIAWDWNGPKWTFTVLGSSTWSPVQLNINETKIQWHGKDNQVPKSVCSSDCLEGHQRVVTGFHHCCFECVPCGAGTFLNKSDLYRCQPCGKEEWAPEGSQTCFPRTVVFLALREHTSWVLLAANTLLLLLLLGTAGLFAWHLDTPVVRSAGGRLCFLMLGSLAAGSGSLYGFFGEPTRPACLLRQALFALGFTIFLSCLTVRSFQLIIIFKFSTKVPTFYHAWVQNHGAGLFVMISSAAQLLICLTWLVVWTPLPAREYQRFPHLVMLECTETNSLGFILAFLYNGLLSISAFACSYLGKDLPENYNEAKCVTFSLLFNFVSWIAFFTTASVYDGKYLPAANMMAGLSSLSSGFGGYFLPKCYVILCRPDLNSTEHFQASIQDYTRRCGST
T1 sequence (Q7RTX0 21-852): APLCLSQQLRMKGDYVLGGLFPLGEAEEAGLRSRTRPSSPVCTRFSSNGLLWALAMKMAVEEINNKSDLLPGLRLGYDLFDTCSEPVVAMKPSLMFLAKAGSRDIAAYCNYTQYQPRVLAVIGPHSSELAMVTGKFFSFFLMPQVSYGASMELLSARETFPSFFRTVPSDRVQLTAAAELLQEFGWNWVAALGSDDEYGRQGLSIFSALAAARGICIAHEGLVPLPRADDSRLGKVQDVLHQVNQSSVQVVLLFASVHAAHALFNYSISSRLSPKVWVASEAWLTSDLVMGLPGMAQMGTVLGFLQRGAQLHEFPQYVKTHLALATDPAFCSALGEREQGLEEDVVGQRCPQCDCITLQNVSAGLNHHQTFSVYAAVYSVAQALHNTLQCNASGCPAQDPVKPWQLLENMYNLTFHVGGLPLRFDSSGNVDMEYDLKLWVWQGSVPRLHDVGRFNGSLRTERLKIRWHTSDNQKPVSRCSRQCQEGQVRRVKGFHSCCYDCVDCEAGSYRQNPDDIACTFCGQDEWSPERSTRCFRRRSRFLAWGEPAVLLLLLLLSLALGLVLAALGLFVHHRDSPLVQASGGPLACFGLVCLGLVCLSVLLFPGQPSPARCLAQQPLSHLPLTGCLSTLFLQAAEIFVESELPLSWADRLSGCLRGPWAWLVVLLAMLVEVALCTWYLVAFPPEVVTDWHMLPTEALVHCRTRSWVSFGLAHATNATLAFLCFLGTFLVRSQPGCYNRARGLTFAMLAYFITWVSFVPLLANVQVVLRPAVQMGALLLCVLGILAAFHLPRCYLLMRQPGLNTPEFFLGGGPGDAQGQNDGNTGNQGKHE
Excerpt: In order to identify new savory flavoring agents and enhancers, including compounds with savory agonist and enhancer activities (dual activity), the tastant compounds of Formula (I) were screened in primary assays and secondary assays including compound dose response and enhancement assay. In a primary assay for potential ability to modulate umami taste, tastant compounds of Formula (I) that can be either savory flavoring agents in their own right or flavor enhancers of MSG are identified and scores of their activities are given as percentage of the maximum MSG intensity (%). In compound dose response, an EC50 is calculated to reflect the potency of the compound as a savory agonist or enhancer.
An HEK293 cell line derivative (see e.g., Chandrashekar, et al., Cell (2000) 100: 703-711) which stably expresses Gα15 and hT1R1/hT1R3 under an inducible promoter (see WO 03/001876 A2) was used to identify compounds with savory tasting properties.
Compounds disclosed in this application were initially selected based on their activity on the hT1R1/hT1R3-HEK293-Gα15 cell line. Activity was determined using an automated fluorometric imaging assay on a FLIPR instrument (Fluorometric Intensity Plate Reader, Molecular Devices, Sunnyvale, Calif.) (designated FLIPR assay). Cells from one clone (designated clone I-17) were seeded into 384-well plates (at approximately 48,000 cells per well) in a medium containing Dulbecco's modified Eagle's medium (DMEM) supplemented with GlutaMAX (Invitrogen, Carlsbad, Calif.), 10% dialyzed fetal bovine serum (Invitrogen, Carlsbad, Calif.), 100 Units/ml Penicillin G, 100 μg/ml Streptomycin (Invitrogen, Carlsbad, Calif.) and 60 pM mifepristone (to induce expression of hT1R1/hT1R3, (see WO 03/001876 A2). I-17 cells were grown for 48 hours at 37° C. I-17 cells were then loaded with the calcium dye Fluo-3AM (Molecular Probes, Eugene, Oreg.), 4 μM in a phosphate buffered saline (D-PBS) (Invitrogen, Carlsbad, Calif.), for 1.5 hours at room temperature. After replacement with 25 μl D-PBS, stimulation was performed in the FLIPR instrument and at room temperature by the addition of 25 μl D-PBS supplemented with different stimuli at concentrations corresponding to twice the desired final level. Receptor activity was quantified by determining the maximal fluorescence increases (using a 480 nm excitation and 535 nm emission) after normalization to basal fluorescence intensity measured before stimulation.
(§1) For dose-responses analysis, stimuli were presented in duplicates at 10 different concentrations ranging from 1.5 nM to 30 μM. Activities were normalized to the response obtained with 60 mM monosodium glutamate, a concentration that elicits maximum receptor response. EC50s (concentration of compound that causes 50% activation of receptor) were determined using a non-linear regression algorithm, where the Hill slope, bottom asymptotes and top asymptotes were allow to vary. Identical results were obtained when analyzing the dose-response data using commercially available software for non-linear regression analysis such as GraphPad PRISM (San Diego, Calif.).

[2] = target: T2, hT1R2/hT1R3 sweet receptor expressed in an HEK293 cell line (Homo sapiens, UniProt Q7RTX0+Q8TE23); test: In vitro hT1R2/hT1R3 sweet taste receptor activation assay (FLIPR, dose response); format: cell-based
T2 construct: expressed in transfected cells; host or cells: HEK293 derivative, clone S-9
T2 sequence (Q8TE23 20-839): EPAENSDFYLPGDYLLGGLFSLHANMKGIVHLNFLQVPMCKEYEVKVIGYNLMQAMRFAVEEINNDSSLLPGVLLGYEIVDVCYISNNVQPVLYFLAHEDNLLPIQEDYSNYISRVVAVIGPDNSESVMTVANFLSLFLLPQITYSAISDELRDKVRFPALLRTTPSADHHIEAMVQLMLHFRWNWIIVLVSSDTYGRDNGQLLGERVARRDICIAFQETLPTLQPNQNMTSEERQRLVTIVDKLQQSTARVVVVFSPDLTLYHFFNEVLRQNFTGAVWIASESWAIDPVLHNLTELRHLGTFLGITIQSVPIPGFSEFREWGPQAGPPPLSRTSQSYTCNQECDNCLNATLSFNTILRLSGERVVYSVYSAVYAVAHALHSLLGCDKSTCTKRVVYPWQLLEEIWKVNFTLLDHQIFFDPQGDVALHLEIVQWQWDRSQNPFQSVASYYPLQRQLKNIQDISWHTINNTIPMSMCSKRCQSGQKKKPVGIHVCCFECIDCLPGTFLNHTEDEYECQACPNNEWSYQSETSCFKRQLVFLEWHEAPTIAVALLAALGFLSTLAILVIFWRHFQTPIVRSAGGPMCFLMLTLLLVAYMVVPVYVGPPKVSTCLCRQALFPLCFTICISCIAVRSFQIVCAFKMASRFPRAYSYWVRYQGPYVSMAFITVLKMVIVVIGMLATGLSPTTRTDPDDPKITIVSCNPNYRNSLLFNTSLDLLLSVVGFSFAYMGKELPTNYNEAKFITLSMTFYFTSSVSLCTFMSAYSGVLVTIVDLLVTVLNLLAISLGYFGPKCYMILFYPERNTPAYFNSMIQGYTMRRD
T2 sequence (Q7RTX0 21-852): T1 sequence (Q7RTX0 21-852)
Excerpt: An HEK293 cell line derivative (see Chandrashekar, J., Mueller, K. L., Hoon, M. A., Adler, E., Feng, L., Guo, W., Zuker, C. S., Ryba, N. J.,. Cel,l 2000, 100, 703-711.) that stably expresses Gα15 and hT1R2/hT1R3 (see Li, X., Staszewski, L., Xu, H., Durick, K., Zoller, M., Adler, E. Proc Natl Acad Sci USA 2002, 99, 4692-4696, and PCT Publication No. WO 03/001876) was used to identify compounds with sweet taste enhancing properties. These references are hereby incorporated herein by reference for their methods of preparing and maintaing the cell lines discussed below, and for their methods for screeing compounds that inhibit the biological receptors.
Compounds covered in this document were initially selected based on their activity on the hT1R2/hT1R3—HEK293-Gα15 cell line (Li, et al. vide supra). Activity was determined using an automated fluorometric imaging assay on a FLIPR instrument (Fluorometric Intensity Plate Reader, Molecular Devices, Sunnyvale, Calif.) (designated FLIPR assay). Cells from one clone (designated S-9 cells) were seeded into 384-well plates (at approximately 50,000 cells per well) in a medium containing DMEM Low Glucose (Invitrogen, Carlsbad, Calif.), 10% dialyzed fetal bovine serum (Invitrogen, Carlsbad, Calif.), 100 Units/ml Penicillin G, and 100 μg/ml Streptomycin (Invitrogen, Carlsbad, Calif.) (Li, et al. vide supra) see also World Patent No. WO 03/001876 A2). S-9 cells were grown for 24 hours at 37° C. S-9 cells were then loaded with the calcium dye Fluo-3AM (Molecular Probes, Eugene, Oreg.), 4 μM in a phosphate buffered saline (D-PBS) (Invitrogen, Carlsbad, Calif.), for 1 hour at room temperature. After replacement with 25 μl D-PBS, stimulation was performed in the FLIPR instrument and at room temperature by the addition of 25 μl D-PBS supplemented with different stimuli at concentrations corresponding to twice the desired final level. Receptor activity was quantified by determining the maximal fluorescence increases (using a 480 nm excitation and 535 nm emission) after normalization to basal fluorescence intensity measured before stimulation.
as §1, with “60” for “1.5”, “400” for “60”, “D-fructose,” for “monosodium glutamate,”, “EC50s” for “EC50s (concentration of compound that causes 50% activation of receptor)”, “algorithm (using a Senomyx, Inc. software),” for “algorithm,”

[3] = read-out: EC50 for activation of a hT1R2/hT1R3 sweet receptor

Row | EC50 ([1]; read-out: Umami EC50) | EC50 ([2]; read-out: Sweet EC50) | Structure (SMILES) | further results
1 | – | 5.56 µM | CC(C)COc1ccc(NC(=S)NCc2ccc[nH]2)cc1 [Example B33] | –
2 | – | 0.93 µM | CCOc1ccc(S(=O)(=O)NCc2ccncc2)cc1 [Example B44] | –
3 | – | 6.5 µM | O=S(=O)(NCc1ccncc1)c1ccc(F)cc1 [Example B42] | –
4 | – | 0.87 µM | C=Cc1ccc(NC(=S)NCc2ccc[nH]2)cc1 [Example B24] | –
5 | – | 4.09 µM | CCN(CC)c1ccc(NC(=S)NCc2ccoc2)cc1 [Example B8] | –
6 | – | 2.94 µM | COc1ccc(S(=O)(=O)Nc2ccc3nn(C)cc3c2)cc1 [Example B47] | –
7 | – | 4.9 µM | COc1ccc(CNC(=S)NC(=O)c2ccccc2Cl)cc1 [Example B9] | –

Continued, compound first:

Row | Structure (SMILES) | EC50 ([1]; read-out: Umami EC50) | EC50 ([2]; read-out: Sweet EC50) | further results
8 | CCOc1ccc(NC(=S)NCCc2ccccn2)cc1 [Example 2] | – | – | EC50 ([1]; read-out: EC50 for activation of a hT1R1/hT1R3 umami receptor expressed in an HEK293 cell line): 0.55 µM
9 | CC1CCCCC1NC(=S)Nc1ccc2c(c1)OCO2 (centres unmarked) [Example A19] | 13.4 µM | – | –
10 | CC(C)(C)c1ccc(NC(=S)NCc2ccccn2)cc1 [Example A16] | 3.71 µM | – | –
11 | O=C(OCc1ccccn1)c1ccc(COc2cccc3ccccc23)cc1 [Example A22] | 3.87 µM | – | –
12 | CSc1ccccc1NC(=S)NC1CCCCC1C (centres unmarked) [Example A15] | 3 µM | – | –
13 | CCCCC(C)NC(=S)NC1CCCc2ccccc21 (centres unmarked) [Example A18] | 7.88 µM | – | –
14 | CCc1ccc(NC(=S)NCCc2ccccn2)cc1 [Example A4] | 1.37 µM | – | –
15 | O=S(=O)(NCc1cc(F)cc2c1OCOC2)c1ccc(-c2ccccn2)s1 [Example A23] | 10.3 µM | – | –
16 | COc1ccc(C(=O)CC(SCO)c2ccc(Cl)cc2)cc1 (centres unmarked) [Example A10] | 6.05 µM | – | –
17 | CC(C)(C)c1ccc(NC(=S)NCCc2ccccn2)cc1 [Example A3] | 1.92 µM | – | –
18 | Cc1cc(CNC(=S)Nc2ccc(OC(C)C)cc2)no1 [Example A20] | 11 µM | – | –
19 | CC(C)c1ccc(NC(=S)NCCc2ccccn2)cc1 [Example A2] | 1.43 µM | – | –
20 | CC(C)Oc1ccc(NC(=S)NCc2ncc[nH]2)cc1 [Example A21] | 14.5 µM | – | –
21 | CCOC(=O)COc1ccc(S(=O)(=O)Nc2ccc3c(c2)OCO3)cc1 [Example A14] | 14.4 µM | – | –
22 | COc1ccc(CNc2cc(C)ccc2C)cc1O [Example 17, 5-((2,5-dimethylphenylamino)methyl)-2-methoxyphenol] | – | – | EC50 [2, 3]: 2.58 µM
23 | COc1ccc(CNc2ccc(F)cc2F)cc1O [Example 14, 5-((2,4-difluorophenylamino)methyl)-2-methoxyphenol] | – | – | EC50 [2, 3]: 2.1 µM
